Two molecules from US20060111289A1, “Compositions and methods of using Alpha-fetoprotein growth inhibitory peptides” (Serometrix, LLC,, priority 2004, published 2006) can be followed below.

Where a SMILES comes first, the peptide text is derived from it.

Assay [1] deals with human platelets. Nature of the assay: Platelet aggregation in human platelet-rich plasma. It is filed as cell-based. More on the design: % Inhibition Of Activity: Platelet Agg. ADP / % Inhibition Of Activity: Platelet Agg. AA / % Inhibition Of Activity: Platelet Agg. Coll: concentration or dose not given beside the values. The procedure:
FIG. 9 presents exemplary data showing platelet aggregation modulation using 0.5 ml of normal human platelet-rich plasma (PRP) with varying amounts of P149 or P 149b using 2.5×10^6 platelets per reaction vessel.
FIG. 10 presents exemplary data showing platelet aggregation activation by arachidonic acid (AA) and collagen using P149-treated platelet suspensions • Panel A1: AA alone; • Panel A2: AA followed by epinephine (EPI) and EPI alone using P149b; • Panel A3: CD62P flow cytometry fluorescence quenching by P149; • Panel B1: collagen alone and collagen+P149; • Panel B2: collagen alone; collagen+P149a showing aggregation diminution.
GIP-derived peptide fragments and/or subfragments have been assayed for platelet aggregation by measuring light transmissions with an aggregometer using a stirred human platelet suspension. Kinlough-Rathbone et al., In: Platelet Aggregation in Measurements of Platelet Function, Eds. Harker L A, Zimmerman T S., Churchill Livingstone, London. pp. 64-87 (1983); and Whittle et al., “Specificity between the anti-aggregatory actions of prostacyclin, prostaglandin Eland D2 on platelets” In: Mechanisms of stimulus—response coupling in platelets, Eds. V. V. K., MacIntyre D E, Scully M F., New York and London: Plenum Press. pp. 109-115 (1985).
The ability of GIP and its fragments were individually examined for aggregation inhibition using citrated human platelet-rich plasma (PRP). The peptides were freshly dissolved in 0.15 M NaCl containing 2.5×10^6 platelets/ml. […]

The subject of assay [2] is three human cancer cell lines (breast, prostate, or kidney). Nature of the assay: Sulforhodamine cytostatic 6-day assay, cyclic versus linear peptide. Type of assay: cell-based. As to conditions: linear versus cyclic configuration. As for the experimental part:
FIG. 3 presents exemplary data showing the growth suppressive activities of the oligomeric forms of P149, cyclic versus linear, are depicted in various in vitro and in vivo models. Biological activity was determined by three growth-dependent bioassays, namely; • Panel-A and A1) an immature rodent uterine bioassay; • Panel-B and B 1) an in vitro MCF-7 foci assay; • Panel-C and C1) an in vitro tumor cell cytostatic assessment. […] See text for details. Scrambled peptide=P327.
GIP is a major participant in tumor cell surface interactions. GIP is a potent suppressor of tumor proliferation in both rodent and human cell models. GIP's biological activity is dependent on its oligomeric state, specifically its trimer (linear) versus monomer (cyclic) configuration. Biological activity was determined by three growth-dependent bioassays, namely, i) an immature rodent uterine assay; ii) an in vitro MCF-7 foci assay; and iii) an in vitro cytostatic assessment. […]
The cyclic form of GIP constitutes a disulfide-bridged monomer in solution, whereas GIP in the linear configuration is known to exist as an oligomeric trimer. […] Using three different human cancer cell lines (breast, prostate, or kidney) it was readily demonstrable that the monomeric cyclic form of the peptide produced 80-90% growth inhibition over a range of 10^−5 M to 10^−7 M when the sulforhodamine cytostatic 6-day assay was employed. […]

“KDFIHKQGVALQTMKQELINLVKELVKPQIEAVADFSGLL (listed as Homo sapiens) [P192, reference compound]”: in assay [1] (ADP-induced), the “% Inhibition Of Activity: Platelet Agg. ADP” value turned out to be 0%. Also, the “% Inhibition Of Activity: Platelet Agg. AA” value in assay [1] (arachidonic acid-induced) worked out at 0%. In addition, in assay [1] (collagen-induced), the “% Inhibition Of Activity: Platelet Agg. Coll” value turned out to be 0%. For the same molecule, in assay [1] (peptide inhibitors 30 & 100 μM), the “Inhibition (%) Of Platelet Aggregation, Adenosine Diphosphate (ADP) 2.5 μM” value was “No effect”; the “Inhibition (%) Of Platelet Aggregation, Arachidonic Acid (AA) 0.3 mM” value is “No effect”; the “Inhibition (%) Of Platelet Aggregation, Collagen (COLL) 2 μg/ml” value is “No effect”; the “Inhibition (%) Of Platelet Aggregation, Epinephrine” value was “No effect”.

Consider `CC[C@H](C)[C@H](NC(=O)[C@@H]1CSSC[C@H](NC(=O)[C@H](C)NC(=O)[C@H](CC(C)C)NC(=O)[C@H](CC(C)C)NC(=O)[C@H](CCCCN)NC(=O)[C@H](CC(=O)O)NC(=O)[C@H](CCC(=O)O)NC(=O)[C@H](CO)NC(=O)[C@@H](N)CC(C)C)C(=O)NCC(=O)N[C@@H](CCC(=O)O)C(=O)NCC(=O)N[C@@H](C)C(=O)N[C@@H](C)C(=O)N[C@@H](CC(=O)O)C(=O)N[C@@H]([C@@H](C)CC)C(=O)N[C@@H]([C@@H](C)CC)C(=O)N[C@@H]([C@@H](C)CC)C(=O)NCC(=O)N[C@@H](Cc2c[nH]cn2)C(=O)N[C@@H](CC(C)C)C(=O)N1)C(=O)N[C@@H](CCCNC(=N)N)C(=O)N[C@@H](Cc1c[nH]cn1)C(=O)N[C@@H](CCC(=O)O)C(=O)N[C@@H](CCSC)C(=O)N[C@H](C(=O)N1CCC[C@H]1C(=O)N[C@H](C(=O)N[C@@H](CC(N)=O)C(=O)N1CCC[C@H]1C(=O)NCC(=O)N[C@H](C(=O)O)C(C)C)C(C)C)[C@@H](C)O` [Cyclic GIP] (HELM PEPTIDE1{L.S.E.D.K.L.L.A.C.G.E.G.A.A.D.I.I.I.G.H.L.C.I.R.H.E.M.T.P.V.N.P.G.V}$PEPTIDE1,PEPTIDE1,9:R3-22:R3$$$V2.0; N-terminus and C-terminus assumed), for which the “Inhibition in the in vitro cytostatic assay” value in assay [2] is listed as 80-90%.
